Test results: patent publication US8293781B2, “Indole derivatives having cPLA2 inhibiting activity and applications and production methods of the same” (Daiichi Sankyo Company, Limited, priority 2007, dated 2012)
Structures can show the parent of a compound that is named as a salt.

Columns and labels:
[1] = test system: guinea pig antigen induced bronchial asthma model; assay: Guinea pig antigen induced bronchial asthma model: airway resistance (IAR, LAR); type: in vivo; conditions: for IAR suppression rate (airway resistance): immediate asthmatic response, 1 minute after challenge; for LAR suppression rate (airway resistance): late asthmatic response, AUC 4 to 8 hours
Experimental: Hartley male guinea pigs (Kyudo Co., Ltd.) were sensitized by inhaling the aerosolized 1% OVA-containing physiological saline solution for consecutive 8 days. One week after the final sensitization, antigen antibody reaction was elicited by inhaling the aerosolized 2% OVA-containing physiological saline solution. 24 hours and 1 hour before antigen challenge, metyrapone (10 mg/kg, 1.0 ml/kg) was injected to the hind limb peripheral vein. 30 minutes before antigen challenge, pyrilamine maleate (10 mg/kg, 1.0 ml/kg) was administered intraperitoneally. The test compound (5 mg/kg and 20 mg/kg, 5.0 ml/kg) was administered once a day from the day after the final sensitization to the day before challenge. On the day of challenge, it was administered orally 1 hour before challenge and 8 hours after challenge. Note that the number of mice used in the test was made eight per group.
The airway resistance (sRaw) was measured using a total respiratory function analysis system (Pulmos-I, made by M.I.P.S.) before antigen challenge, 1 minute after finishing the antigen challenge, and 2, 4, 5, 6, 7, 8, and 22 to 24 hours after antigen challenge. […] The late asthmatic response (LAR) was evaluated by calculating the AUC from the rate of change 4 to 8 hours after inducement based on the measurement values and finding the value obtained by subtratcting the AUC of each compound administered group from the AUC of the vehicle administered group with the control inhibition rate as a percent (%) with respect to the value of the vehicle administered group. The rates of suppression of typical compounds with respect to the increases in airway resistances in immediate asthmatic response (IAR) and late asthmatic response (LAR) are shown in Table 8.

rats = assay: Repeated oral administration to rats once a day over two weeks (toxicity); type: in vivo, rat; conditions: once a day over two weeks repeatedly orally
Experimental: Further, the present invention compound (I) or its salts or their solvates have low toxicity. In experiments administering the compound of Example 231 of the present invention to rats once a day over two weeks repeatedly orally, the nontoxic amount was 180 mg/kg/day.

SMILES	IAR suppression rate (airway resistance) ([1]; 5 mg/kg oral) [%]	LAR suppression rate (airway resistance) ([1]; 5 mg/kg oral) [%]	IAR suppression rate (airway resistance) ([1]; 20 mg/kg oral) [%]	LAR suppression rate (airway resistance) ([1]; 20 mg/kg oral) [%]	nontoxic amount (rats) [mg/kg/day]
O=C(O)CCc1ccc2c(c1)c(CCc1ccccc1)cn2-c1ccc(OCCO)cc1 [Example 229, 3-{1-[4-(2-hydroxyethoxy)phenyl]-3-(2-phenylethyl)-1H-indol-5-yl}propanoic acid 2-amino-2-(hydroxymethyl)propane-1,3-diol salt (1:1)]	15	22	33	37	
O=C(O)CCc1ccc2c(c1)c(CCc1ccccc1)cn2-c1ccc(OC(F)F)cc1 [Example 190, 3-{1-[4-(difluoromethoxy)phenyl]-3-(2-phenylethyl)-1H-indol-5-yl}propanoic acid 2-amino-2-(hydroxymethyl)propane-1,3-diol salt (1:1)]	2	46	2	42	
O=C(O)CCc1ccc2c(c1)c(CCc1ccccc1)cn2-c1ccc(Oc2ccccc2)cc1 [Example 231, 3-[1-(4-phenoxyphenyl)-3-(2-phenylethyl)-1H-indol-5-yl]propanoic acid 2-amino-2-(hydroxymethyl)propane-1,3-diol salt (1:1)]	21	45	59	78	180
